Measurements as given in ChEMBL document CHEMBL3217699, “Discovery of potent, proteolytically stable, and cell permeable human sirtuin peptidomimetic inhibitors containing N-thioacetyl-lysine” (Medchemcomm, 2010).
pIC50: −log10 of the molar value. Each block holds one compound with its values, some of them ahead of it. The source made the active and inactive calls. The calls are words filed in the database; no cut-off is given here. Where a SMILES comes first, the peptide text is derived from it.

Assays:
[1] = molecular target: T1, NAD-dependent protein deacetylase sirtuin-1 (Homo sapiens, UniProt Q96EB6); experiment: Inhibition of human SIRT1 using peptide substrate assessed as deacetylase activity
T1 sequence (Q96EB6 whole entry): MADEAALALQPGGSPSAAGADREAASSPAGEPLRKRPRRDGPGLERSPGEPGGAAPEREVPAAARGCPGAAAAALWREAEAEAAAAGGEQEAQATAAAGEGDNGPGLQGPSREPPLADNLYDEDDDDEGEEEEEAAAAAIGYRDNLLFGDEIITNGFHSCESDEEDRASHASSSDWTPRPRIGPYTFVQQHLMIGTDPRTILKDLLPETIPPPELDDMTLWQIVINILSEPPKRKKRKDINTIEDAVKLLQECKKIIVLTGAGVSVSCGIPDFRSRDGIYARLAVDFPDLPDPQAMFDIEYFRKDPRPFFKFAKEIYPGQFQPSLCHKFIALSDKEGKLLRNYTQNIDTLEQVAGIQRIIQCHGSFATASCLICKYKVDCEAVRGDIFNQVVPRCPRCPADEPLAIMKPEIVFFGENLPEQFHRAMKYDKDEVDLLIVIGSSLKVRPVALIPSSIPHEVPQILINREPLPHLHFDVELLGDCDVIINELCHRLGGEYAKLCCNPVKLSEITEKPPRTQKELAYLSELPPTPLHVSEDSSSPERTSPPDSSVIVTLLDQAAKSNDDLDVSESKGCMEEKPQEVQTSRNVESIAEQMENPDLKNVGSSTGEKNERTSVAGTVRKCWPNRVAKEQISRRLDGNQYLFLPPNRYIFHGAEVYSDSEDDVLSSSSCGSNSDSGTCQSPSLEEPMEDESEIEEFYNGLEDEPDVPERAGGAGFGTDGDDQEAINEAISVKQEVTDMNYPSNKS

[2] = Proteolytic stability of the compound assessed as degradation after 30 mins by HPLC in presence of pronase; assay type: ADME; settings: 0.5 h
[3] = molecular target: T2, NAD-dependent protein deacetylase sirtuin-1 (Homo sapiens) (UniProt Q96EB6); experiment: Activity of GST-tagged SIRT1 (unknown origin) assessed as compound deacetylation measured up to 4 hrs by sirutin time course assay
T2 sequence (whole entry): T1 sequence (Q96EB6 whole entry)

[4] = molecular target: T3, Histone deacetylase 8 (Homo sapiens) (UniProt Q9BY41); experiment: Activity of recombinant HDAC8 (unknown origin) assessed as compound deacetylation measured up to 4 hrs by time course assay
T3 sequence (whole entry): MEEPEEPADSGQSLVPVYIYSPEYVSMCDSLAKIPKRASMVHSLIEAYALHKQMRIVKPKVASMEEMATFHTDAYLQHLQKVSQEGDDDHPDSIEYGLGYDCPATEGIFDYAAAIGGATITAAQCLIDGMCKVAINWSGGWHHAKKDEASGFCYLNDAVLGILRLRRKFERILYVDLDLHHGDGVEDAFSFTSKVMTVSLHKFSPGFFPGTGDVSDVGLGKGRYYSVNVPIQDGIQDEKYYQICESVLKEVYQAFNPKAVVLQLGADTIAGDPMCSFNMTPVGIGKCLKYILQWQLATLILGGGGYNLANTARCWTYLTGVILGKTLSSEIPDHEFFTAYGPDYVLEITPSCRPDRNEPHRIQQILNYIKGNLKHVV

[5] = molecular target: Histone deacetylase 1 (Homo sapiens) (UniProt Q13547); experiment: Activity of HDAC1 in human HeLa cells nuclear extract assessed as compound deacetylation measured up to 2 hrs by time course assay; assay type: cell-free
Histone deacetylase 1 (Homo sapiens), sequence (Q13547 whole entry): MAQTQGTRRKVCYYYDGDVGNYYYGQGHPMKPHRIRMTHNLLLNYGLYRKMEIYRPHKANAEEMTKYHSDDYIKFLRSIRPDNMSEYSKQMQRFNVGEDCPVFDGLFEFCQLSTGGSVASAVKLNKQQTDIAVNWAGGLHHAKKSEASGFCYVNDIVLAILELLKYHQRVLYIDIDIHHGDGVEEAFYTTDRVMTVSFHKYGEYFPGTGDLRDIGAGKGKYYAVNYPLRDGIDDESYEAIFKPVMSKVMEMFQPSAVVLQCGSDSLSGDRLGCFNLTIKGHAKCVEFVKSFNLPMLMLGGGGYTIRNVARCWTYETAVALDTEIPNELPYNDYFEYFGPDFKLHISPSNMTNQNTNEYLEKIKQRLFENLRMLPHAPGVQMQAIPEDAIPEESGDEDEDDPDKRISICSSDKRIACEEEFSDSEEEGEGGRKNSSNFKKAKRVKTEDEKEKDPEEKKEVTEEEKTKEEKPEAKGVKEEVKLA

[6] = molecular target: Histone deacetylase 2 (Homo sapiens) (UniProt Q92769); experiment: Activity of HDAC2 in human HeLa cells nuclear extract assessed as compound deacetylation measured up to 2 hrs by time course assay; assay type: cell-free
Histone deacetylase 2 (Homo sapiens), sequence (Q92769 whole entry): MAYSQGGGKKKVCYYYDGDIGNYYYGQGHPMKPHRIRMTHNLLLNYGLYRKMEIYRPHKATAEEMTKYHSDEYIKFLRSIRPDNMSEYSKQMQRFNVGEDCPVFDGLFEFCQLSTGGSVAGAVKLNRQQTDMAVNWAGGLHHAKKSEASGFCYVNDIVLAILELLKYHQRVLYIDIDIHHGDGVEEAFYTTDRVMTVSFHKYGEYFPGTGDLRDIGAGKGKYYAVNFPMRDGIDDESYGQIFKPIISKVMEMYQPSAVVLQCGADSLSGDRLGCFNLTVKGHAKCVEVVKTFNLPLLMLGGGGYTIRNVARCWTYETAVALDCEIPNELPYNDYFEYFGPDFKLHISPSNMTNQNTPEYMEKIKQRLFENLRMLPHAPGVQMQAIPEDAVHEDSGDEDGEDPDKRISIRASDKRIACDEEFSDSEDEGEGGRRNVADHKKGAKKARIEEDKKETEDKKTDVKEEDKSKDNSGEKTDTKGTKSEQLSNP

[7] = molecular target: T4, NAD-dependent protein deacetylase sirtuin-2 (Homo sapiens, UniProt Q8IXJ6); experiment: Inhibition of GST-tagged SIRT2 (unknown origin) by HPLC assay
T4 sequence (Q8IXJ6 whole entry): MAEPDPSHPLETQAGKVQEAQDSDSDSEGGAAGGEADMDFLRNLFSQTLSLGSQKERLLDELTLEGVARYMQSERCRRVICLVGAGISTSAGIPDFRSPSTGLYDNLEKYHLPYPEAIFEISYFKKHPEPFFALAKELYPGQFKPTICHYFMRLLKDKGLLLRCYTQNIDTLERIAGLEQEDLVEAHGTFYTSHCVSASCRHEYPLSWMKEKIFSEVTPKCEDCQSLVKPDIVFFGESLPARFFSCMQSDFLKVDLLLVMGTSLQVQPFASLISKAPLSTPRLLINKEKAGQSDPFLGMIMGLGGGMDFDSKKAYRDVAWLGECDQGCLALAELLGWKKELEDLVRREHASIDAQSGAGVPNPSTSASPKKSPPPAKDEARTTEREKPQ

[8] = molecular target: T5, NAD-dependent protein deacetylase sirtuin-3, mitochondrial (Homo sapiens, UniProt Q9NTG7); experiment: Inhibition of GST-tagged SIRT3 (unknown origin) by HPLC assay
T5 sequence (Q9NTG7 whole entry): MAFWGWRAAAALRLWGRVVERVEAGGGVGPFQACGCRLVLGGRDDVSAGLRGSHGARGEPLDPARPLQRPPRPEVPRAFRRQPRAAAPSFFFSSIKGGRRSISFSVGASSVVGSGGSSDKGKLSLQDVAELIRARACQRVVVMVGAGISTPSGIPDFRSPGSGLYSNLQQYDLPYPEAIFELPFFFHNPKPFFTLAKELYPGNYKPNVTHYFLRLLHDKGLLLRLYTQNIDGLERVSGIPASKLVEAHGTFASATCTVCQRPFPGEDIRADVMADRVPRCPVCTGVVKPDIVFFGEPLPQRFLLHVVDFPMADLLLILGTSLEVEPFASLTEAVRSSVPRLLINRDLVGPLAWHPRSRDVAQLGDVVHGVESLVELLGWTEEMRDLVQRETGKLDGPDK

[9] = molecular target: T6, NAD-dependent protein deacetylase sirtuin-2 (Homo sapiens) (UniProt Q8IXJ6); experiment: Activity of GST-tagged SIRT2 (unknown origin) assessed as compound deacetylation measured up to 4 hrs by sirutin time course assay
T6 sequence (whole entry): T4 sequence (Q8IXJ6 whole entry)

[10] = molecular target: T7, NAD-dependent protein deacetylase sirtuin-3, mitochondrial (Homo sapiens) (UniProt Q9NTG7); experiment: Activity of GST-tagged SIRT3 (unknown origin) assessed as compound deacetylation measured up to 4 hrs by sirutin time course assay
T7 sequence (whole entry): T5 sequence (Q9NTG7 whole entry)

[11] = molecular target: T2, NAD-dependent protein deacetylase sirtuin-1 (Homo sapiens); experiment: Inhibition of SIRT1 in human HCT116 cells assessed as increase in p53 acetylation level at 5 uM by Western blot analysis; assay type: cell-based; settings: HCT-116
[12] = molecular target: T2, NAD-dependent protein deacetylase sirtuin-1 (Homo sapiens); experiment: Inhibition of SIRT1 in human HCT116 cells assessed as increase in p53 acetylation level at 500 uM by Western blot analysis; assay type: cell-based; settings: HCT-116
[13] = molecular target: T2, NAD-dependent protein deacetylase sirtuin-1 (Homo sapiens); experiment: Inhibition of SIRT1 in human HCT116 cells assessed as increase in p53 acetylation level by Western blot analysis; assay type: cell-based; settings: HCT-116
[14] = molecular target: T2, NAD-dependent protein deacetylase sirtuin-1 (Homo sapiens); experiment: Inhibition of SIRT1 in human HCT116 cells assessed as increase in p53 acetylation level at 3 uM by Western blot analysis; assay type: cell-based; settings: HCT-116
[15] = molecular target: T6, NAD-dependent protein deacetylase sirtuin-2 (Homo sapiens); experiment: Ratio of AGK2 to compound in GST-tagged SIRT2 (unknown origin)
[16] = molecular target: T2, NAD-dependent protein deacetylase sirtuin-1 (Homo sapiens); settings: HCT-116, 10 uM
Description: Inhibition of SIRT1 in human HCT116 cells assessed as increase in p53 acetylation level at 10 uM by Western blot analysis

pIC50 [1]: 5.23
Stability [2]: Stable
Activity [3]: inactive
Activity [4]: inactive
Activity [5]: inactive
Activity [6]: inactive
pIC50 [7]: 5.54
pIC50 [8]: 5.37
Activity [9]: inactive
Activity [10]: inactive
inhibition [11]: Active
SMILES: CC(=O)NCCC[C@H](NC(=O)[C@H](CCCCNC(C)=S)NC(=O)[C@H](CCCNC(C)=O)NC(C)=O)C(N)=O

pIC50 [1]: 5.38
SMILES: CSCC[C@H](NC(=O)[C@H](CC(C)C)NC(=O)[C@H](CCCCNC(C)=S)NC(=O)[C@H](Cc1ccc(O)cc1)NC(=O)[C@H](Cc1c[nH]cn1)NC(C)=O)C(N)=O (HELM PEPTIDE1{[ac].H.Y.[CC(=S)NCCCC[C@H](N[*:1])C(=O)[*:2]].L.M.[am]}$$$$V2.0)

pIC50 [1]: 5.70
SMILES: CSCC[C@H](NC(=O)[C@H](CCCCNC(C)=O)NC(=O)[C@H](CCCCNC(C)=S)NC(=O)[C@H](CCCCNC(C)=O)NC(=O)[C@H](Cc1c[nH]cn1)NC(C)=O)C(N)=O (HELM PEPTIDE1{[ac].H.K.[CC(=S)NCCCC[C@H](N[*:1])C(=O)[*:2]].K.M.[am]}|PEPTIDE2{[ac]}|PEPTIDE3{[ac]}$PEPTIDE1,PEPTIDE2,3:R3-1:R2|PEPTIDE1,PEPTIDE3,5:R3-1:R2$$$V2.0)

pIC50 [1]: 5.46
SMILES: CSCC[C@H](NC(=O)[C@H](Cc1ccc(O)cc1)NC(=O)[C@H](CCCCNC(C)=S)NC(=O)[C@H](CCCCN)NC(=O)[C@H](Cc1c[nH]cn1)NC(C)=O)C(N)=O (HELM PEPTIDE1{[ac].H.K.[CC(=S)NCCCC[C@H](N[*:1])C(=O)[*:2]].Y.M.[am]}$$$$V2.0)

pIC50 [1]: 5.22
SMILES: CSCC[C@H](NC(=O)[C@H](Cc1ccc(O)cc1)NC(=O)[C@H](CCCCNC(C)=S)NC(=O)[C@H](Cc1ccc(O)cc1)NC(=O)[C@H](Cc1c[nH]cn1)NC(C)=O)C(N)=O (HELM PEPTIDE1{[ac].H.Y.[CC(=S)NCCCC[C@H](N[*:1])C(=O)[*:2]].Y.M.[am]}$$$$V2.0)

pIC50 [1]: 6.15
SMILES: CSCC[C@H](NC(=O)[C@H](CCCCNC(C)=O)NC(=O)[C@H](CCCCNC(C)=S)NC(=O)[C@H](CCCCN)NC(=O)[C@H](Cc1c[nH]cn1)NC(C)=O)C(N)=O (HELM PEPTIDE1{[ac].H.K.[CC(=S)NCCCC[C@H](N[*:1])C(=O)[*:2]].K.M.[am]}|PEPTIDE2{[ac]}$PEPTIDE1,PEPTIDE2,5:R3-1:R2$$$V2.0)

inhibition [12]: inactive
SMILES: CSCC[C@H](NC(=O)[C@H](CC(C)C)NC(=O)[C@H](CCCC/N=C(/C)S)NC(=O)[C@H](CCCCN)NC(=O)[C@H](Cc1c[nH]cn1)NC(=O)[C@H](CCCN=C(N)N)NC(=O)[C@H](CO)NC(=O)[C@@H](NC(=O)[C@H](CO)NC(=O)[C@H](CCC(N)=O)NC(=O)CNC(=O)[C@H](CCCCN)NC(=O)[C@@H](N)CCCCN)[C@@H](C)O)C(=O)N[C@@H](Cc1ccccc1)C(=O)N[C@@H](CCCCN)C(=O)N[C@H](C(=O)N[C@@H](CCC(=O)O)C(=O)NCC(=O)O)[C@@H](C)O

pIC50 [1]: 5.68
Stability [2]: Stable
Activity [3]: inactive
Activity [4]: inactive
Activity [5]: 19%
Activity [6]: 19%
inhibition [13]: Dose-dependent effect
inhibition [14]: Active
pIC50 [7]: 5.62
pIC50 [8]: 5.35
Ratio [15]: 23
Activity [9]: inactive
Activity [10]: inactive
SMILES: CC(=O)NCCCC[C@H](NC(=O)[C@H](CCCCNC(C)=S)NC(=O)[C@H](CCCCNC(C)=O)NC(C)=O)C(N)=O

pIC50 [1]: 3.85
inhibition [16]: inactive
SMILES: CC(=S)NCCCC[C@H](NC(=O)OCc1ccccc1)C(=O)Nc1ccccc1

pIC50 [1]: 5.39
SMILES: CSCC[C@H](NC(=O)[C@H](CC(C)C)NC(=O)[C@H](CCCCNC(C)=S)NC(=O)[C@H](CCCCNC(C)=O)NC(=O)[C@H](Cc1c[nH]cn1)NC(C)=O)C(N)=O (HELM PEPTIDE1{[ac].H.K.[CC(=S)NCCCC[C@H](N[*:1])C(=O)[*:2]].L.M.[am]}|PEPTIDE2{[ac]}$PEPTIDE1,PEPTIDE2,3:R3-1:R2$$$V2.0)
